Test results published in ChEMBL document CHEMBL3352494, “New guaiane sesquiterpenes from Artemisia rupestris and their inhibitory effects on nitric oxide production” (Bioorg Med Chem Lett, 2014).

What was measured:
RAW264.7 [1] = test: Cytotoxicity against mouse RAW264.7 cells at 0.01 to 100 uM after 24 hrs by MTT assay; type: cell-based; details: raw264.7, 24 h
RAW264.7 [2] = test: Inhibition of NO production in LPS-stimulated mouse RAW264.7 cells pre-incubated for 2 hrs before LPS stimulation for 24 hrs by Griess assay method; type: functional, cell-based

| Compound | IC50 (RAW264.7 [2]) | Activity (RAW264.7 [1]) |
| --- | --- | --- |
| COc1cc(-c2oc3cc(OC)c(OC)c(O)c3c(=O)c2O)ccc1O | 4.75 µM | Non-toxic |
| COc1ccc(Oc2cc(=O)c3c(O)cc(O[C@@H]4O[C@H](CO)[C@@H](O)[C@H](O)[C@H]4O)cc3o2)cc1 | 21.4 µM | Non-toxic |
| COc1ccc(-c2cc(=O)c3c(O)cc(O[C@@H]4O[C@H](CO)[C@@H](O)[C@H](O)[C@H]4O)cc3o2)cc1OC | 9.51 µM | Non-toxic |
| COC(=O)[C@@]1(O)C[C@@H](O)[C@@H](OC(=O)/C=C/c2ccc(O)c(O)c2)[C@H](OC(=O)/C=C/c2ccc(O)c(O)c2)C1 | 23.3 µM | Non-toxic |
| O=C(/C=C/c1ccc(O)c(O)c1)O[C@@H]1[C@H](O)C[C@](O)(C(=O)O)C[C@H]1OC(=O)/C=C/c1ccc(O)c(O)c1 (relative stereo) | 20.2 µM | Non-toxic |
| COc1ccc(-c2cc(=O)c3c(O)cc(O[C@@H]4O[C@H](CO[C@@H]5O[C@@H](C)[C@H](O)[C@@H](O)[C@H]5O)[C@@H](O)[C@H](O)[C@H]4O)cc3o2)cc1 [ACACIIN] | 10 µM | Non-toxic |
| O=c1cc(-c2ccc(O)c(O)c2)oc2cc(O[C@@H]3O[C@H](CO)[C@@H](O)[C@H](O)[C@H]3O)cc(O)c12 [GALUTEOLIN] | 8.3 µM | Non-toxic |
| O=c1cc(-c2ccc(O)c(O)c2)oc2cc(O)cc(O)c12 [LUTEOLIN] | 0.21 µM | Non-toxic |
| COc1ccc(-c2cc(=O)c3c(O)c(OC)c(O)c(OC)c3o2)cc1 [NEVADENSIN] | 5.08 µM | Non-toxic |
| N=C(N)NN [PIMAGEDINE] | 0.23 µM | – |
| COc1ccc(-c2cc(=O)c3c(O)cc(O[C@@H]4O[C@H](CO)[C@@H](O)[C@H](O)[C@H]4O)cc3o2)cc1 [TILIANINE] | 8.94 µM | Non-toxic |

Now from value to compound, other results behind:

| IC50 (RAW264.7 [2]) | Compound | Activity (RAW264.7 [1]) |
| --- | --- | --- |
| 0.18 µM | C=C(C(=O)O)[C@@H]1CC[C@H](C)[C@]2(O)CC(=O)C(C)=C2C1 | Non-toxic |
| 0.47 µM | C=C(C(=O)O)[C@@H]1CC[C@](C)(O)[C@@H]2CC(=O)C(C)=C2C1 | Non-toxic |
| 4.6 µM | C=C(C(=O)O[C@@H]1O[C@H](CO)[C@@H](O)[C@H](O)[C@H]1O)[C@@H]1CC[C@H](C)[C@@H]2CC(=O)C(C)=C2C1 | Non-toxic |
| 0.24 µM | COc1cc(-c2cc(=O)c3c(O)cc(O)cc3o2)ccc1O [CHRYSOERIOL] | – |
| 3.04 µM | C=C(C(=O)O)[C@@H]1CC[C@H](C)[C@@H]2CC(=O)C(C)=C2C1 [PECHUELOIC ACID] | Non-toxic |
